Test: mn = molality of the nth substance listed, in mol/kg
Settings: 101 kPa, Liquid

O=C([O-])[C@H](O)[C@@H](O)C(=O)[O-].[Na+].[Na+] [disodium L-tartrate] + O
Settings | mass density, 298.15 K [kg/m3] | mass density, 308.15 K [kg/m3] | mass density, 318.15 K [kg/m3] | speed of sound, 298.15 K [m/s] | speed of sound, 308.15 K [m/s] | speed of sound, 318.15 K [m/s]
m1 = 0.0325 | 1001.45 | 998.34 | 994.47 | 1502 | 1524.8 | 1541.3
m1 = 0.0351 | 1001.8 | 998.7 | 994.82 | 1502.3 | 1525.2 | 1541.7
m1 = 0.0405 | 1002.51 | 999.4 | 995.52 | 1503.1 | 1526 | 1542.3
m1 = 0.0552 | 1004.48 | 1001.34 | 997.43 | 1505.4 | 1528 | 1544.3
m1 = 0.0576 | 1004.79 | 1001.64 | 997.72 | 1505.7 | 1528.4 | 1544.6
m1 = 0.0673 | 1006.08 | 1002.91 | 998.99 | 1507.2 | 1529.7 | 1545.9
m1 = 0.0747 | 1007.06 | 1003.87 | 999.92 | 1508.2 | 1530.7 | 1547
m1 = 0.0814 | 1007.94 | 1004.73 | 1000.77 | 1509.9 | 1531.6 | 1547.7
m1 = 0.1365 | 1015.14 | 1011.79 | 1007.83 | 1517.3 | 1539.2 | 1554.9
m1 = 0.2798 | 1033.29 | 1029.68 | 1025.48 | 1537.5 | 1558.2 | 1572.9
m1 = 0.4159 | 1049.92 | 1046.11 | 1041.78 | 1556.3 | 1575.8 | 1589.4
m1 = 0.5661 | 1067.63 | 1063.54 | 1059.16 | 1576.4 | 1594.6 | 1607.3
m1 = 0.7158 | 1084.68 | 1080.39 | 1075.77 | 1598.6 | 1615.3 | 1624.1
m1 = 0.888 | 1103.52 | 1098.96 | 1094.15 | 1618.5 | 1633.8 | 1644
m1 = 1.055 | 1121.13 | 1116.46 | 1111.35 | 1639.6 | 1653.6 | 1662.2
m1 = 1.211 | 1137 | 1132.16 | 1126.7 | 1659 | 1671.7 | 1679.2
m1 = 1.412 | 1156.69 | 1151.68 | 1146.41 | 1683.6 | 1694.5 | 1701.2
m1 = 1.593 | 1173.71 | 1168.58 | 1163.14 | 1705.1 | 1714.6 | 1719.8
m1 = 1.749 | 1187.9 | 1182.99 | 1176.91 | 1723.3 | 1732 | 1734.8
m1 = 2.203 | 1226.56 | 1221.08 | 1215.23 | 1774 | 1778.7 | 1779.7
